Measurements taken from ChEMBL document CHEMBL6153155, “Novel Cyclohexyl Amido Acid Antagonists of Lysophosphatidic Acid Type 1 Receptor for the Treatment of Pulmonary Fibrosis” (ACS Med Chem Lett, 2025).
≈ marks a conversion by molar mass, not a printed value.

What was measured:
[1] = molecular target: BSEP (Homo sapiens, UniProt O95342); assay: (§1) Inhibition of BSEP in cryopreserved sandwich-cultured human hepatocytes by measuring reduction in TCA biliary clearance using taurocholic acid as substrate at 50 uM relative to control; format: cell-based, Hepatocyte; details: cryopreserved sandwich-cultured hepatocytes, probe taurocholic acid
Chain of BSEP (O95342 whole entry): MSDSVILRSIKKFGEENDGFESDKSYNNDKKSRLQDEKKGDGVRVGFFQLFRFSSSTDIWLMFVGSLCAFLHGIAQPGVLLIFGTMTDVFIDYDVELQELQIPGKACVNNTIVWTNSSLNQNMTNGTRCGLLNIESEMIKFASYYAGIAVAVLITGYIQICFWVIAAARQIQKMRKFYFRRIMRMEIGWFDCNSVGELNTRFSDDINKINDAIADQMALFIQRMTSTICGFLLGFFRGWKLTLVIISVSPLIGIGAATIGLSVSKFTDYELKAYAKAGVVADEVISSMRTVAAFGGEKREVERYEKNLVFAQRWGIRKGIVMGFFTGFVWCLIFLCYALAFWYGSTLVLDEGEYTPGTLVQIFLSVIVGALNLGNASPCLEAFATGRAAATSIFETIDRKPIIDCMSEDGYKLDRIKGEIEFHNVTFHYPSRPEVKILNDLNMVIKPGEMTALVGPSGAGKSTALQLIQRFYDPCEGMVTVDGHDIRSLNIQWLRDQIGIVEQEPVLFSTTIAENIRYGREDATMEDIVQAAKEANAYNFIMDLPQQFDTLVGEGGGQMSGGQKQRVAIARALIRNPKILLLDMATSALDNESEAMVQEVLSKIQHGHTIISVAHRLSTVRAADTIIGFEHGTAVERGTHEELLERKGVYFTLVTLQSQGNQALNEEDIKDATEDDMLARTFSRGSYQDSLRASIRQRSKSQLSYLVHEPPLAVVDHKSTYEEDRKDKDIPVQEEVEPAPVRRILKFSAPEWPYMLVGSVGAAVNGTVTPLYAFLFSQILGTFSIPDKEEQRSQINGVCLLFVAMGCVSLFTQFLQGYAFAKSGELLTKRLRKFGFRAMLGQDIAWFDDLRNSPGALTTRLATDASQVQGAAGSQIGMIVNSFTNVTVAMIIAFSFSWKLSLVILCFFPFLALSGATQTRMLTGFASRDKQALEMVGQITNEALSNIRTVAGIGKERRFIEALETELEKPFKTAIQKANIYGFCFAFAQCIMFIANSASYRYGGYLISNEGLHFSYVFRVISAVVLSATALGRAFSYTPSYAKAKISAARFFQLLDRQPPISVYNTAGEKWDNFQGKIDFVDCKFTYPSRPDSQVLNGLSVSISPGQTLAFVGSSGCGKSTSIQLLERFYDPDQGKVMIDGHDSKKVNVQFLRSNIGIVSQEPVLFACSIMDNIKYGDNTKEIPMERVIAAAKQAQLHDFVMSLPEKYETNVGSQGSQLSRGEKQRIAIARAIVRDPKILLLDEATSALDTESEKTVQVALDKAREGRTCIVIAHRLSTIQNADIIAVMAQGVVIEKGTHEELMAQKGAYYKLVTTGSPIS

[2] = Metabolic stability in female C57BL/6J mouse liver microsomes assessed as intrinsic clearance measured per mg of protein at 0.5 uM measured upto 45 mins in presence of NADPH regenerating system by HPLC-MS/MS analysis; format: ADME, Microsome; details: read-out: CLH
[3] = Metabolic stability in human liver microsomes assessed as intrinsic clearance measured per mg of protein at 0.5 uM measured upto 45 mins in presence of NADPH regenerating system by HPLC-MS/MS analysis; format: ADME, Microsome; details: read-out: CLH
[4] = Aqueous solubility of the compound at pH 7.4; format: physicochemical; details: buffer
[5] = Lipophilicity, logD of compound at pH 7.4 by chromatographic hydrophobicity index method; format: physicochemical; details: buffer
[6] = molecular target: Bile salt export pump (Homo sapiens, UniProt O95342); assay: as §1; format: cell-based, Hepatocyte; details: hepatocytes, 50 µM
Chain of Bile salt export pump (O95342 whole entry): as above

| Structure (SMILES) | microsomal CLint at 0.5 µM [2] [µL/min/mg] | microsomal CLint at 0.5 µM [3] [µL/min/mg] | solubility [4] [µM] | chromatographic logD [5] | inhibition at 50 µM [1] [%] | inhibition (INH) [6] |
| --- | --- | --- | --- | --- | --- | --- |
| Cc1nc(-c2onc(C)c2Nc2cncc(C3CC3)n2)ccc1NC(=O)[C@H]1CCCC[C@@H]1C(=O)O | – | – | – | – | – | Not_active |
| CCOc1cncc(Nc2c(C)noc2-c2ccc(NC(=O)[C@H]3CCCC[C@@H]3C(=O)O)c(C)n2)n1 | – | – | – | – | – | Not_active |
| Cc1noc(-c2ccc(NC(=O)[C@@H]3CCCC[C@H]3C(=O)O)cc2)c1NC(=O)O[C@H](C)c1ccccc1Cl | – | – | – | – | 66 | – |
| Cc1nc(-c2ncccc2NC(=O)O[C@H](C)c2ccccc2Cl)ccc1NC(=O)[C@H]1CCCC[C@@H]1C(=O)O | – | – | – | – | – | Not_active |
| Cc1nc(-c2onc(C)c2Nc2cncc(OC3CC3)n2)ccc1NC(=O)[C@H]1CCCC[C@@H]1C(=O)O | – | – | – | – | – | Not_active |
| CCNc1cncc(Nc2c(C)noc2-c2ccc(NC(=O)[C@H]3CCCC[C@@H]3C(=O)O)c(C)n2)n1 | – | – | – | – | – | Not_active |
| Cc1noc(-c2ccc(NC(=O)C3CCCC(C(=O)O)C3)cc2)c1NC(=O)O[C@H](C)c1ccccc1Cl (single isomer, unassigned; diastereomer 1) | – | – | – | – | – | Not_active |

Continued, in another order:

| microsomal CLint at 0.5 µM [2] [µL/min/mg] | microsomal CLint at 0.5 µM [3] [µL/min/mg] | solubility [4] [µM] | chromatographic logD [5] | Structure (SMILES) | inhibition at 50 µM [1] [%] | inhibition (INH) [6] |
| --- | --- | --- | --- | --- | --- | --- |
| 11.8 | 7 | 525 (≈ 292 µg/mL) | 1.69 | Cc1nc(-c2onc(C)c2CNC(=O)O[C@H](C)c2ccccc2Cl)ccc1NC(=O)[C@H]1CCCC[C@@H]1C(=O)O | 82 | – |
| 3.7 | 3.1 | 519 (≈ 245 µg/mL) | 1.36 | CCC[C@@H](C)OC(=O)Nc1c(C)noc1-c1ccc(NC(=O)[C@H]2CCCC[C@@H]2C(=O)O)c(C)n1 | 48 | – |
| 4 | < 2 | 509 (≈ 282 µg/mL) | 1.69 | Cc1cc(NC(=O)[C@H]2CCCC[C@@H]2C(=O)O)c(C)nc1-c1onc(C)c1NC(=O)O[C@H](C)c1ccccc1Cl | 73 | – |
| 6 | 0.3 | – | – | Cc1nc(-c2onc(C)c2NC(=O)O[C@H](C)c2ccccn2)ccc1NC(=O)[C@H]1CCCC[C@@H]1C(=O)O | 0 | – |
| 5.4 | 1 | 555 (≈ 302 µg/mL) | 1.5 | Cc1noc(-c2ccc(NC(=O)[C@H]3CCCC[C@@H]3C(=O)O)c(F)n2)c1NC(=O)O[C@H](C)c1ccccc1Cl | 50 | – |
| 7.6 | 7.6 | 503 (≈ 280 µg/mL) | 1.55 | Cc1nc(-c2snc(C)c2NC(=O)O[C@H](C)c2ccccc2Cl)ccc1NC(=O)[C@H]1CCCC[C@@H]1C(=O)O | 64 | – |
| 19.5 | 2.84 | – | 1.39 | Cc1noc(-c2ccc(NC(=O)[C@H]3CCCC[C@@H]3C(=O)O)cc2)c1NC(=O)O[C@H](C)c1ccccc1Cl | 72 | – |
